BindingDB's records for doi:10.1016/j.bmcl.2020.127000 (Ajinomoto, 2020)
pEC50: −log10 of the molar value.

test: Positive allosteric modulation of human TIR2/TIR3 expressed in PEAKrapid cells assessed as potentiation of sucrose-induced intracellular calcium influx by measuring sucrose EC50 at 30 uM measured for 120 secs by fluorescence based assay

Row | Structure (SMILES) | pEC50
1 | CC(C)(CC(=O)Nc1cncc(C(=O)O)c1N)NC(=O)[C@@H](N)C1CCCCC1 | 2.59
2 | CC(C)[C@H](N)C(=O)NC(C)(C)CC(=O)Nc1cncc(C(=O)O)c1N | 2.03
3 | CC(C)C[C@H](N)C(=O)NC(C)(C)CC(=O)Nc1cncc(C(=O)O)c1N | 2.24
4 | CC(C)(CC(=O)Nc1cncc(C(=O)O)c1N)NC(=O)[C@H](N)C1CCCCC1 | 2.11
5 | CC(C)(CC(=O)Nc1cncc(C(=O)O)c1N)NC(=O)[C@@H](N)c1ccccc1 | 2.02
6 | CC(C)(CC(=O)Nc1cncc(C(=O)O)c1N)NC(=O)C1(N)CCCCC1 | 2.12
7 | CC(C)(CC(=O)Nc1cncc(C(=O)O)c1N)NC(=O)[C@@H](N)CC1CCCCC1 | 2.14
8 | CC(C)(CC(=O)Nc1cncc(C(=O)O)c1N)NC(=O)CC[C@@H](N)Cc1ccccc1 | 2.06
9 | CC(C)(CC(=O)Nc1cncc(C(=O)O)c1N)NC(=O)CC1(CN)CCCCC1 | 2.37
10 | CC(C)(CC(=O)Nc1cncc(C(=O)O)c1N)NC(=O)c1cccc(N)c1 | 1.97
11 | CC(C)(CC(=O)Nc1cncc(C(=O)O)c1N)NC(=O)c1ccc(N)cc1 | 2.05
12 | CC(C)(CC(=O)Nc1cncc(C(=O)O)c1N)NC(=O)[C@@H]1CCC[C@H](N)C1 | 2.01
13 | CC(C)(CC(=O)Nc1cncc(C(=O)O)c1N)NC(=O)[C@H]1CC[C@H](N)CC1 | 2.11
14 | CC(C)(CC(=O)Nc1cncc(C(=O)O)c1N)NC(=O)[C@H]1CC[C@@H](N)CC1 | 2.14
15 | CC(C)(CC(=O)Nc1cncc(C(=O)O)c1N)NC(=O)C1CCNC1 (centres undefined) | 2.10
16 | CC(C)(CC(=O)Nc1cncc(C(=O)O)c1N)NC(=O)C[C@H]1CCNC1 | 2.12
17 | CC(C)(CC(=O)Nc1cncc(C(=O)O)c1N)NC(=O)C[C@@H]1CCNC1 | 2.13
18 | CC(C)(CC(=O)Nc1cncc(C(=O)O)c1N)NC(=O)C1CCNCC1 | 1.84
19 | CC(C)(CC(=O)Nc1cncc(C(=O)O)c1N)NC(=O)c1ccccc1 | 1.95
20 | CC(C)(CC(=O)Nc1cncc(C(=O)O)c1N)NC(=O)c1cccc2c1CCCC2 | 2.05

Row | Structure (SMILES) | pEC50
21 | CC(C)(CC(=O)Nc1cncc(C(=O)O)c1N)NC(=O)C1(c2ccccc2)CC1 | 2.08
22 | CC(C)(CC(=O)Nc1cncc(C(=O)O)c1N)NC(=O)CC1CCCCC1 | 2.27
23 | CC(C)(CC(=O)Nc1cncc(C(=O)O)c1N)NC(=O)CCC1CCCCC1 | 1.96
24 | CC(C)(CC(=O)Nc1cncc(C(=O)O)c1N)NC(=O)C1CCCCC1 | 2.21
25 | CC(C)(CC(=O)Nc1cncc(C(=O)O)c1N)NC(=O)CC1CCCC1 | 2.29
26 | CC(C)C(=O)NC(C)(C)CC(=O)Nc1cncc(C(=O)O)c1N | 2.10
27 | CC(C)(CC(=O)Nc1cncc(C(=O)O)c1N)NC(=O)C(C)(C)C | 2.03
28 | CC(C)CC(=O)NC(C)(C)CC(=O)Nc1cncc(C(=O)O)c1N | 2.14
29 | CC(C)(C)CC(=O)NC(C)(C)CC(=O)Nc1cncc(C(=O)O)c1N | 2.09
30 | CCCCCC(=O)NC(C)(C)CC(=O)Nc1cncc(C(=O)O)c1N | 2.18
31 | CCCCCCC(=O)NC(C)(C)CC(=O)Nc1cncc(C(=O)O)c1N | 2.11
32 | CCCCCCCC(=O)NC(C)(C)CC(=O)Nc1cncc(C(=O)O)c1N | 1.99
33 | CCCCCCCCCCCC(=O)NC(C)(C)CC(=O)Nc1cncc(C(=O)O)c1N | 1.93
34 | CCCCCCCC/C=C\CCCCCCCC(=O)NC(C)(C)CC(=O)Nc1cncc(C(=O)O)c1N | 2.00
35 | CC(C)C[C@H](NC(=O)[C@@H](NC(=O)OC(C)(C)C)C1CCCCC1)C(=O)NC(C)(C)CC(=O)Nc1cncc(C(=O)O)c1N | 2.43
36 | CC[C@H](C)[C@H](NC(=O)[C@@H](NC(=O)OC(C)(C)C)C1CCCCC1)C(=O)NC(C)(C)CC(=O)Nc1cncc(C(=O)O)c1N | 2.48
37 | CC(C)C[C@H](NC(=O)[C@@H](N)C1CCCCC1)C(=O)NC(C)(C)CC(=O)Nc1cncc(C(=O)O)c1N | 2.25
38 | CC[C@H](C)[C@H](NC(=O)[C@@H](N)C1CCCCC1)C(=O)NC(C)(C)CC(=O)Nc1cncc(C(=O)O)c1N | 2.25
39 | CC(C)(CC(=O)Nc1cncc(C(=O)O)c1N)NC(=O)[C@@H](NC(=O)[C@@H](N)C1CCCCC1)C1CCCCC1 | 2.60
